Entries after “also recorded” stand apart in the source; their conditions may differ.

Data set [1] concerns phages (12mer phagemid library). The data set can be described thus: Phage infectivity (toxicity) assay, colony-forming unit assay. As to conditions: 50–200 μM linker, 22 or 37 °C, 3 or 24 h, 1 mM TCEP; cfu assay, n = 3. The procedure:
For all experiments, phages were quantified via a colony-forming unit assay. In this assay, serial dilutions of the phage solution were prepared in 2× YT media, and 10 μL of each dilution was added to 90 μL of log-phase E. coli ER2738. Following the addition of the phage dilutions, the culture was incubated at 37 °C for 45 min, and then 10 μL was spotted in triplicate onto agar selection plates containing either 100 μg/mL ampicillin and 10 μg/mL tetracycline, which were incubated at 37 °C overnight. The following day, colonies in each spot were counted, and this number was used to calculate the number of colony-forming units in the solution.
The purified 12mer phagemid library in binding buffer was incubated with 1 mM TCEP at 37 °C for 30 min. The reduced phages were then reacted with linkers (pCAmCP or mCAmCP) or DMSO equivalents at varying concentrations (50, 100, and 200 μM) and temperatures (22 or 37 °C) for varying times (3 or 24 h). Following incubation under the various conditions, the phage solutions were then titered by using the previously described colony-forming unit assay.

Data set [2] has as its system CA5C phages (N-terminal cysteines displayed on pIII). Put plainly: Biotin pulldown (capture) assay of CA5C phages. As to conditions: 100 μM linker, RT; Biotin-CBT, streptavidin beads; vs control phage AAKAA; n = 3. From the text:
Following the characterization of the linkers for efficient cyclization of peptides, we then looked to characterize pCAmCP and mCAmCP for reactivity toward phage proteins. Some previously developed linkers that generate macrocyclic peptide libraries on phage hinder phage infectivity, which is likely from modifying cysteines within phage coat proteins.[26]−[28] To test if this occurred in the novel linkers, we performed toxicity assays that reacted the phages with different concentrations of linker (50–200 μM), temperatures (22 or 37 °C), and reaction times (3 or 24 h). […] We expressed phages with a CA5C peptide on the N-terminus of pIII. […] Following the precipitation of the phages, they were again reduced with TCEP and were incubated with a Biotin-CBT compound to label any unreacted N-terminal cysteines with biotin, allowing for phage capture on streptavidin beads (Figure 4B). […] Comparison with capture levels of unreacted phages indicated at least 80% and 70% reactivity of pCAmCP and mCAmCP with the CA5C phages, respectively. […]
The purified CA5C phages (10^11 to 10^12 cfu, 98 μL) in binding buffer were incubated with 1 mM TCEP at 37 °C for 30 min. […] Percent phages captured was calculated by (phages input – phages in supernatant)/phages input × 100.

As for `N#Cc1ncc(NC(=O)CCl)cn1` [pCAmCP, 2-chloro-N-(2-cyanopyrimidin-5-yl)acetamide], the “phage toxicity (in words)” value in data set [1] was “No toxicity was observed under any of the conditions tested; also recorded: without hindering infection”. For the same compound, the “percent of phages captured after linker reaction (in words)” value in data set [2] is reported as “reduced to levels similar to those of a control phage that lacked N-terminal cysteines”.
Taken in the same sequence, the figures for `N#Cc1nccc(NC(=O)CCl)n1` [mCAmCP, 2-chloro-N-(2-cyanopyrimidin-4-yl)acetamide] were “No toxicity was observed under any of the conditions tested; also recorded: without hindering infection” and “reduced to levels similar to those of a control phage that lacked N-terminal cysteines”.
